Measured values as given in ChEMBL document CHEMBL1156770, “X-ray crystallographic analysis of alpha-ketoheterocycle inhibitors bound to a humanized variant of fatty acid amide hydrolase” (J Med Chem, 2010).

Biological target: T1, Fatty-acid amide hydrolase 1 (Homo sapiens, UniProt O00519)
T1 sequence (O00519 whole entry): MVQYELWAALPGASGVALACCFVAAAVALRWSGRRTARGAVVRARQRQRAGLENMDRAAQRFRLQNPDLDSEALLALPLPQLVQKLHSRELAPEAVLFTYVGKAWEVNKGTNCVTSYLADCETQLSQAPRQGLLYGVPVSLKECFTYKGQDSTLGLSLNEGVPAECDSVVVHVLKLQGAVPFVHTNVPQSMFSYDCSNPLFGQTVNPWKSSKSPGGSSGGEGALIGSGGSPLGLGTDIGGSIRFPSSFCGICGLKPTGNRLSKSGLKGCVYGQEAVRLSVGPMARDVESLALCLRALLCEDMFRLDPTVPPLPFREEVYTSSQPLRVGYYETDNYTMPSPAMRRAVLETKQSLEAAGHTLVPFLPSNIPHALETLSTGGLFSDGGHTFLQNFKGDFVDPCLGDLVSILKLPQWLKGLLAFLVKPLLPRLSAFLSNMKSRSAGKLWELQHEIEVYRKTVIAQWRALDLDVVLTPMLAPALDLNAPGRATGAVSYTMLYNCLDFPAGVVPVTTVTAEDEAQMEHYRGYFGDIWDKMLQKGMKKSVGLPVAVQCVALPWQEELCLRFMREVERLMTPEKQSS
Assay: Inhibition of FAAH

Ki: 3 nM
Structure (SMILES): CCCCCCCC/C=C\CCCCCCCC(=O)c1ncc(-c2ccccn2)o1
